# Test results published in US11331299B2, “Medicinal use of serrulatane diterpenes” (The University of Sydney, priority 2016, dated 2022).
# Like-named read-outs stand apart in the source and are kept apart here.
# System: 280 human cancer cell lines
# Assay: OncoPanel cell proliferation assay (10-day)
# Type: cell-based
# Conditions: Homo sapiens; for IC50: read-out: Cell Count IC50; for EC50: read-out: Cell Count EC50; for GI50: read-out: Cell Count GI50
# [1] = Caov-3, CaOV3, Female GU - Ovary
# [2] = ChaGo-K-1, ChaGoK1, Lung - NSCLC
# [3] = D341 Med, CNS - Medulloblastoma
# [4] = Detroit 562, Detroit 562, Head and Neck
# [5] = DoTc2-4510, DoTc2 4510, Lymphoma
# [6] = G292, G-292, clone A141B1, Soft Tissue - Osteosarcoma
# [7] = HEL 92.1.7, HEL-92-1-7, Leukemia
# [8] = HOS, Soft Tissue - Osteosarcoma
# [9] = HT-1080, HT-1080, Soft Tissue - Sarcoma
# [10] = HUH-6-clone5, HUH-6 Clone 5, Liver
# [11] = Hs 821.T, Soft Tissue - Sarcoma
# [12] = Hs 888.Sk, Soft Tissue - Osteosarcoma
smiles,measurement,setting,value
"CC(C)=CCC[C@H](CO)[C@@H]1CC[C@@H](C)c2c1cc(C)c(O)c2O [Compound 1, 7,8,18-trihydroxyserrulat-14-ene]",IC50,"Calu-6, Calu6, Lung - NSCLC",9.24 µM
same,EC50,[1],1.91 µM
same,GI50,[1],1.85 µM
same,IC50,[1],1.92 µM
same,EC50,"Capan-2, Capan-2, Pancreas",1.33 µM
same,GI50,"Capan-2, Capan-2, Pancreas",1.32 µM
same,IC50,"Capan-2, Capan-2, Pancreas",1.33 µM
same,EC50,[2],1.53 µM
same,GI50,[2],1.53 µM
same,IC50,[2],1.54 µM
same,EC50,[3],9.09 µM
same,GI50,[3],9.37 µM
same,IC50,[3],9.46 µM
same,EC50,"DB, Lymphoma",2.1 µM
same,GI50,"DB, Lymphoma",2.09 µM
same,IC50,"DB, Lymphoma",2.1 µM
same,EC50,"DBTRG-05MG, CNS - Glioma",2.65 µM
same,GI50,"DBTRG-05MG, CNS - Glioma",2.64 µM
same,IC50,"DBTRG-05MG, CNS - Glioma",2.66 µM
same,EC50,"DK-MG, CNS - Glioma",6.16 µM
same,GI50,"DK-MG, CNS - Glioma",6.12 µM
same,IC50,"DK-MG, CNS - Glioma",6.41 µM
same,EC50,"DLD-1, DLD-1, Colon",2.96 µM
same,GI50,"DLD-1, DLD-1, Colon",2.96 µM
same,IC50,"DLD-1, DLD-1, Colon",2.96 µM
same,EC50,"DMS-53, DMS53, Lung - SCLC",0.81 µM
same,GI50,"DMS-53, DMS53, Lung - SCLC",0.77 µM
same,IC50,"DMS-53, DMS53, Lung - SCLC",0.81 µM
same,EC50,"DMS-114, DMS114, Lung - SCLC",2.77 µM
same,GI50,"DMS-114, DMS114, Lung - SCLC",2.57 µM
same,IC50,"DMS-114, DMS114, Lung - SCLC",2.77 µM
same,EC50,"DOHH-2, DOHH-2, Lymphoma",1.41 µM
same,GI50,"DOHH-2, DOHH-2, Lymphoma",1.41 µM
same,IC50,"DOHH-2, DOHH-2, Lymphoma",1.41 µM
same,EC50,"DU-145, DU145, Prostate",2.8 µM
same,GI50,"DU-145, DU145, Prostate",2.78 µM
same,IC50,"DU-145, DU145, Prostate",2.8 µM
same,EC50,"Daoy, CNS - Medulloblastoma",1.06 µM
same,GI50,"Daoy, CNS - Medulloblastoma",1.06 µM
same,IC50,"Daoy, CNS - Medulloblastoma",1.06 µM
same,EC50,"Daudi, Lymphoma",1.84 µM
same,GI50,"Daudi, Lymphoma",1.84 µM
same,IC50,"Daudi, Lymphoma",1.84 µM
same,EC50,[4],1.96 µM
same,GI50,[4],1.96 µM
same,IC50,[4],1.97 µM
same,EC50,[5],1.03 µM
same,GI50,[5],1.01 µM
same,IC50,[5],1.03 µM
same,EC50,"EB2, Lymphoma",6.47 µM
same,GI50,"EB2, Lymphoma",6.45 µM
same,IC50,"EB2, Lymphoma",6.49 µM
same,EC50,"EB-3, Lymphoma",3.56 µM
same,GI50,"EB-3, Lymphoma",3.56 µM
same,IC50,"EB-3, Lymphoma",3.56 µM
same,EC50,"EFM-19, EFM-19, Breast",1.61 µM
same,GI50,"EFM-19, EFM-19, Breast",1.54 µM
same,IC50,"EFM-19, EFM-19, Breast",1.61 µM
same,EC50,"EM-2, Leukemia",2.39 µM
same,GI50,"EM-2, Leukemia",2.37 µM
same,IC50,"EM-2, Leukemia",2.39 µM
same,EC50,"FaDu, Head and Neck",0.87 µM
same,GI50,"FaDu, Head and Neck",0.87 µM
same,IC50,"FaDu, Head and Neck",0.87 µM
same,EC50,[6],4.55 µM
same,GI50,[6],4.41 µM
same,IC50,[6],4.57 µM
same,EC50,"G-361, G-361, Skin (Melanoma)",1.79 µM
same,GI50,"G-361, G-361, Skin (Melanoma)",1.77 µM
same,IC50,"G-361, G-361, Skin (Melanoma)",1.79 µM
same,EC50,"G-401, G-401, Kidney",4 µM
same,GI50,"G-401, G-401, Kidney",3.99 µM
same,IC50,"G-401, G-401, Kidney",4 µM
same,EC50,"GA-10, GA-10, Lymphoma",1.93 µM
same,GI50,"GA-10, GA-10, Lymphoma",1.94 µM
same,IC50,"GA-10, GA-10, Lymphoma",1.94 µM
same,EC50,"H4, CNS - Glioma",2.77 µM
same,GI50,"H4, CNS - Glioma",2.77 µM
same,IC50,"H4, CNS - Glioma",2.77 µM
same,EC50,"HCT-15, HCT-15, Colon",1.84 µM
same,GI50,"HCT-15, HCT-15, Colon",1.83 µM
same,IC50,"HCT-15, HCT-15, Colon",1.84 µM
same,EC50,"HCT-116, HCT-116, Colon",1.75 µM
same,GI50,"HCT-116, HCT-116, Colon",1.75 µM
same,IC50,"HCT-116, HCT-116, Colon",1.75 µM
same,EC50,"HEC-1-A, Female GU - Uterus",2.57 µM
same,GI50,"HEC-1-A, Female GU - Uterus",2.56 µM
same,IC50,"HEC-1-A, Female GU - Uterus",2.57 µM
same,EC50,[7],13.9 µM
same,GI50,[7],13.9 µM
same,IC50,[7],13.9 µM
same,EC50,"HLE, Liver",4.62 µM
same,GI50,"HLE, Liver",4.59 µM
same,IC50,"HLE, Liver",4.63 µM
same,EC50,"HLF, Liver",4.47 µM
same,GI50,"HLF, Liver",4.45 µM
same,IC50,"HLF, Liver",4.48 µM
same,EC50,"HMCB, Skin (Melanoma)",1.37 µM
same,GI50,"HMCB, Skin (Melanoma)",1.36 µM
same,IC50,"HMCB, Skin (Melanoma)",1.37 µM
same,EC50,[8],0.96 µM
same,GI50,[8],0.96 µM
same,IC50,[8],0.96 µM
same,EC50,"HPAF-II, Pancreas",1.38 µM
same,GI50,"HPAF-II, Pancreas",1.37 µM
same,IC50,"HPAF-II, Pancreas",1.38 µM
same,EC50,"HT1197, HT-1197, Bladder",2.31 µM
same,GI50,"HT1197, HT-1197, Bladder",2.28 µM
same,IC50,"HT1197, HT-1197, Bladder",2.34 µM
same,EC50,"HT, Lymphoma",1.52 µM
same,GI50,"HT, Lymphoma",1.51 µM
same,IC50,"HT, Lymphoma",1.53 µM
same,EC50,"HT-3, Female GU - Cervix",3.88 µM
same,GI50,"HT-3, Female GU - Cervix",3.84 µM
same,IC50,"HT-3, Female GU - Cervix",3.89 µM
same,EC50,"HT-29, HT-29, Colon",4.01 µM
same,GI50,"HT-29, HT-29, Colon",4 µM
same,IC50,"HT-29, HT-29, Colon",4.01 µM
same,EC50,[9],0.96 µM
same,GI50,[9],0.96 µM
same,IC50,[9],0.96 µM
same,EC50,"HT-1376, HT1376, Bladder",1.45 µM
same,GI50,"HT-1376, HT1376, Bladder",1.43 µM
same,IC50,"HT-1376, HT1376, Bladder",1.46 µM
same,EC50,[10],1.52 µM
same,GI50,[10],1.51 µM
same,IC50,[10],1.52 µM
same,EC50,"HeLa, Female GU - Cervix",2.99 µM
same,GI50,"HeLa, Female GU - Cervix",2.98 µM
same,IC50,"HeLa, Female GU - Cervix",2.99 µM
same,EC50,"HepG2, HepG2, Liver",0.82 µM
same,GI50,"HepG2, HepG2, Liver",0.81 µM
same,IC50,"HepG2, HepG2, Liver",0.82 µM
same,EC50,"Hs 229.T, Lung - NSCLC",2.88 µM
same,GI50,"Hs 229.T, Lung - NSCLC",2.89 µM
same,IC50,"Hs 229.T, Lung - NSCLC",2.94 µM
same,EC50,"Hs 294T, Skin (Melanoma)",2.64 µM
same,GI50,"Hs 294T, Skin (Melanoma)",2.59 µM
same,IC50,"Hs 294T, Skin (Melanoma)",2.64 µM
same,EC50,"Hs 445, Hs 445, Lymphoma",1.3 µM
same,GI50,"Hs 445, Hs 445, Lymphoma",1.31 µM
same,IC50,"Hs 445, Hs 445, Lymphoma",1.32 µM
same,EC50,"Hs 611.T, Lymphoma",2.92 µM
same,GI50,"Hs 611.T, Lymphoma",2.91 µM
same,IC50,"Hs 611.T, Lymphoma",2.94 µM
same,EC50,"Hs 683, Hs 683, CNS - Glioma",4.9 µM
same,GI50,"Hs 683, Hs 683, CNS - Glioma",4.76 µM
same,IC50,"Hs 683, Hs 683, CNS - Glioma",4.91 µM
same,EC50,"Hs 688(A).T, Skin (Melanoma)",1.33 µM
same,GI50,"Hs 688(A).T, Skin (Melanoma)",1.27 µM
same,IC50,"Hs 688(A).T, Skin (Melanoma)",1.44 µM
same,EC50,"Hs746T, HS 746T, Stomach",5.58 µM
same,GI50,"Hs746T, HS 746T, Stomach",4.64 µM
same,IC50,"Hs746T, HS 746T, Stomach",5.74 µM
same,EC50,"Hs766T, Hs 766T, Pancreas",1.61 µM
same,GI50,"Hs766T, Hs 766T, Pancreas",1.54 µM
same,IC50,"Hs766T, Hs 766T, Pancreas",1.61 µM
same,EC50,[11],4.22 µM
same,GI50,[11],1.8 µM
same,IC50,[11],4.22 µM
same,EC50,[12],2.2 µM
same,GI50,[12],2.05 µM
same,IC50,[12],2.38 µM
same,EC50,"Hs 934.T, Skin (Melanoma)",2.53 µM
same,GI50,"Hs 934.T, Skin (Melanoma)",2.34 µM
same,IC50,"Hs 934.T, Skin (Melanoma)",3.27 µM
same,EC50,"Hs 936.T(C1), Skin (Melanoma)",2 µM
same,GI50,"Hs 936.T(C1), Skin (Melanoma)",1.97 µM
same,IC50,"Hs 936.T(C1), Skin (Melanoma)",2 µM
same,EC50,"Hs-578T, Hs 578T, Breast",4.74 µM
same,GI50,"Hs-578T, Hs 578T, Breast",4.68 µM
same,IC50,"Hs-578T, Hs 578T, Breast",4.76 µM
same,EC50,"HuCCT-1, HuCCT1, Liver",2.48 µM
same,GI50,"HuCCT-1, HuCCT1, Liver",2.48 µM
same,IC50,"HuCCT-1, HuCCT1, Liver",2.48 µM
same,EC50,"HuP-T4, HuP-T4, Pancreas",4.52 µM
same,GI50,"HuP-T4, HuP-T4, Pancreas",4.53 µM
same,IC50,"HuP-T4, HuP-T4, Pancreas",4.54 µM
same,EC50,"J82, Bladder",1.06 µM
same,GI50,"J82, Bladder",1.05 µM
same,IC50,"J82, Bladder",1.06 µM
same,EC50,"JAR, Placenta",12.2 µM
same,GI50,"JAR, Placenta",12.2 µM
same,IC50,"JAR, Placenta",12.2 µM
same,EC50,"JEG-3, JEG-3, Placenta",4.33 µM
same,GI50,"JEG-3, JEG-3, Placenta",4.32 µM
same,IC50,"JEG-3, JEG-3, Placenta",4.33 µM
same,EC50,"JIYOYE, Lymphoma",5.88 µM
same,GI50,"JIYOYE, Lymphoma",5.87 µM
same,IC50,"JIYOYE, Lymphoma",5.88 µM
same,EC50,"JeKo-1, JeKo-1, Lymphoma",5.23 µM
same,GI50,"JeKo-1, JeKo-1, Lymphoma",5.21 µM
same,IC50,"JeKo-1, JeKo-1, Lymphoma",5.23 µM
same,EC50,"Jurkat, Leukemia",2.25 µM
same,GI50,"Jurkat, Leukemia",2.24 µM
same,IC50,"Jurkat, Leukemia",2.25 µM
same,EC50,"K562, K562, Leukemia",4.6 µM
same,GI50,"K562, K562, Leukemia",4.58 µM
same,IC50,"K562, K562, Leukemia",4.6 µM
same,EC50,"KATO III, Stomach",3.28 µM
same,GI50,"KATO III, Stomach",3.27 µM
same,IC50,"KATO III, Stomach",3.28 µM
same,EC50,"KHOS-240S, Soft Tissue - Osteosarcoma",0.95 µM
